Test results taken from patent publication US20100190807A1, “CDKI Pathway inhibitors and uses thereof to regulate expression to TAU protein” (Senex Biotechnology, Inc., priority 2008, published 2010).

Target: T1, NFκB (p50 and p65 subunits) (Homo sapiens, UniProt P19838+Q04206)
T1 construct: endogenous in cells; control or TNFα-treated
Test: TransAM NFκB p65 and p50 transcription factor assay (oligonucleotide binding)
Assay type: cell-based
From the text: The left set of bars represents cells treated with carrier control, the middle set represents cells treated with SNX2, and the right set represents cells treated with a known inhibitor of NFκB binding (TPCK).
We also tested if these compounds could act as the inhibitors of NFκB, by measuring cellular levels of p50 or p65 subunits binding oligonucleotides containing NFκB consensus binding site, using ACTIVE MOTIF TransAM™ NFκB p65 Chemi and NFκB p50 Chemi Transcription Factor Assay Kits.

T1 sequence (P19838 1-433 limits assumed): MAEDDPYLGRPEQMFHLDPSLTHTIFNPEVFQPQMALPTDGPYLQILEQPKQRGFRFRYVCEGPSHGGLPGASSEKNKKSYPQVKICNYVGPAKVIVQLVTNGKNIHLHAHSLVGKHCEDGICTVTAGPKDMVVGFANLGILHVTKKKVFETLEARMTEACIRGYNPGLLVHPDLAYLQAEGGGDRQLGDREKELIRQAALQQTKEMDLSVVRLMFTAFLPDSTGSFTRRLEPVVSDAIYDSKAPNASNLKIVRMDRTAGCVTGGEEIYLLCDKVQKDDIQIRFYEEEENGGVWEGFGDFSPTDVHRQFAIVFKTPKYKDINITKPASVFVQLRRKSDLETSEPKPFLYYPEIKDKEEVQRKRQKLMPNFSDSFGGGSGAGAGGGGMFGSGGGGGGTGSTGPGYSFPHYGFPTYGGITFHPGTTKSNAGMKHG
T1 sequence (Q04206 whole entry): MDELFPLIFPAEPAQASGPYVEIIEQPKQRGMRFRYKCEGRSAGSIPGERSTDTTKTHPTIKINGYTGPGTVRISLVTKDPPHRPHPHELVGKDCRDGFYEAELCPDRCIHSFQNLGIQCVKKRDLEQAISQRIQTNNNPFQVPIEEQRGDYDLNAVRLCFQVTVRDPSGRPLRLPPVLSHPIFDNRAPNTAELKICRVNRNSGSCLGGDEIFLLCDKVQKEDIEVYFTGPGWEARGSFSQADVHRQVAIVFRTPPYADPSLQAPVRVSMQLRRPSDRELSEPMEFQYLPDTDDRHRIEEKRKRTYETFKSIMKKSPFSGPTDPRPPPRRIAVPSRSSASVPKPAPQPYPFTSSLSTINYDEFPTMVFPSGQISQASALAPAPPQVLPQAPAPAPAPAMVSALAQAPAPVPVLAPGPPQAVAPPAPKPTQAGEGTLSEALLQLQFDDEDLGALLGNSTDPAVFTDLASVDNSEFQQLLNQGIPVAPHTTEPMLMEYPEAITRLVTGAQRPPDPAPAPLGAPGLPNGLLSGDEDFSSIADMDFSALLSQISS

SMILES: Cc1ccc(S(=O)(=O)N[C@@H](Cc2ccccc2)C(=O)CCl)cc1 [TPCK]
- TNFα-induced NFκB activity (TNFα-treated cells): completely blocks
- basal NFκB activity (control cells): completely blocks
